Converted amounts (≈) assume the structure as drawn. Where two headings read alike, the source gives them in different places.
Legend:
E. coli ATCC 25922 = test: Broth microdilution MIC, E. coli ATCC 25922; assay type: cell-based; conditions: Escherichia coli, ATCC25922; E. coli ATCC 25922, broth microdilution; read-out: MIC E. coli 25922
How it was run: (§1)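 Strains are tested by standard CLSI broth microdilution. Log-phase cells, diluted by OD600 to 5×10^5 CFU/mL, meet 2-fold compound series and incubate 16-20 hours at 37° C before the lowest growth-free concentration is recorded.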

K. pneumoniae UMM = test: microbe, parasite or virus in culture; assay type: cell-based; conditions: Klebsiella pneumoniae; K. pneumoniae UMM producing SHV-5 and KPC-2; read-out: MIC K. pneumoniae UMM
How it was run: as §1

E. coli AG100A = test: microbe, parasite or virus in culture; assay type: cell-based; conditions: Escherichia coli, read-out: MIC E. coli AG100A
How it was run: as §1

K. pneumoniae SI-117 = test: microbe, parasite or virus in culture; assay type: cell-based; conditions: Klebsiella pneumoniae, SI117, read-out: MIC K. pneumoniae SI-117
How it was run: as §1

E. coli D22 = test: microbe, parasite or virus in culture; assay type: cell-based; conditions: Escherichia coli; hyper-permeable E. coli D22, broth microdilution; read-out: MIC E. coli D22
How it was run: as §1

E. coli 901C = test: microbe, parasite or virus in culture; assay type: cell-based; conditions: Escherichia coli; hyper-permeable E. coli 901C, broth microdilution; read-out: MIC E. coli 901C
How it was run: as §1

E. coli PBP3 = E. coli PBP3 (Escherichia coli (strain K12), UniProt P0AD68); test: E. coli PBP3 Bocillin-FL fluorescence polarization competition binding assay
Chain of E. coli PBP3 (P0AD68 whole entry): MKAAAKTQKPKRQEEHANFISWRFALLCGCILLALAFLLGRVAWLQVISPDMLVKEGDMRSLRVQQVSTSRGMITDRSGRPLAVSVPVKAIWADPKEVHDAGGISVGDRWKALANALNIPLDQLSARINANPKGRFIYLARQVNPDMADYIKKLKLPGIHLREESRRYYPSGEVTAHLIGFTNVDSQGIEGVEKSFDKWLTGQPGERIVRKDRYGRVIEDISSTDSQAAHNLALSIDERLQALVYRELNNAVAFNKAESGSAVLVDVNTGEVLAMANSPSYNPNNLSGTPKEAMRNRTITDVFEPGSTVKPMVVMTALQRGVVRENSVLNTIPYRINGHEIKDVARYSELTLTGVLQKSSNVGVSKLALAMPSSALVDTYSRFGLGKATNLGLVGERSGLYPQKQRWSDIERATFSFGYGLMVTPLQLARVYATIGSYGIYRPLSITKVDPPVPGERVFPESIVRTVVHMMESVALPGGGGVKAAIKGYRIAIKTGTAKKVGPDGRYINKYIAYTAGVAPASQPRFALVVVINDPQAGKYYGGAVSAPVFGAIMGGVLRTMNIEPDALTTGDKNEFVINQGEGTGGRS
How it was run: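 Competition against 0.1 μM Bocillin-FL for binding to 1.5 μM purified protein, read by fluorescence polarization for 60 min. Compounds tested from 0 to 1000 μM; EC50 taken as the concentration reducing probe binding.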

K. pneumoniae 848844 = test: microbe, parasite or virus in culture; assay type: cell-based, Klebsiella pneumoniae; conditions: Klebsiella pneumoniae; K. pneumoniae 848844 producing SHV-11 and KPC-2; read-out: MIC K. pneumoniae 848844
How it was run: as §1

E. coli AG100 = test: Broth microdilution MIC, E. coli AG100 (wild-type parent); assay type: cell-based; conditions: Escherichia coli; wild-type parent E. coli AG100, broth microdilution; read-out: MIC E. coli AG100
How it was run: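 Starting inoculum of 5×10^5 CFU/mL, from colonies grown 3-5 h in Mueller-Hinton broth with divalent cations, added to two-fold compound dilution series.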

E. coli PBP1b = E. coli PBP1b (Escherichia coli (strain K12), UniProt P02919); test: Radioligand competition binding assay with 14C-labeled boronic acid probe, PBP1b
Chain of E. coli PBP1b (P02919 whole entry): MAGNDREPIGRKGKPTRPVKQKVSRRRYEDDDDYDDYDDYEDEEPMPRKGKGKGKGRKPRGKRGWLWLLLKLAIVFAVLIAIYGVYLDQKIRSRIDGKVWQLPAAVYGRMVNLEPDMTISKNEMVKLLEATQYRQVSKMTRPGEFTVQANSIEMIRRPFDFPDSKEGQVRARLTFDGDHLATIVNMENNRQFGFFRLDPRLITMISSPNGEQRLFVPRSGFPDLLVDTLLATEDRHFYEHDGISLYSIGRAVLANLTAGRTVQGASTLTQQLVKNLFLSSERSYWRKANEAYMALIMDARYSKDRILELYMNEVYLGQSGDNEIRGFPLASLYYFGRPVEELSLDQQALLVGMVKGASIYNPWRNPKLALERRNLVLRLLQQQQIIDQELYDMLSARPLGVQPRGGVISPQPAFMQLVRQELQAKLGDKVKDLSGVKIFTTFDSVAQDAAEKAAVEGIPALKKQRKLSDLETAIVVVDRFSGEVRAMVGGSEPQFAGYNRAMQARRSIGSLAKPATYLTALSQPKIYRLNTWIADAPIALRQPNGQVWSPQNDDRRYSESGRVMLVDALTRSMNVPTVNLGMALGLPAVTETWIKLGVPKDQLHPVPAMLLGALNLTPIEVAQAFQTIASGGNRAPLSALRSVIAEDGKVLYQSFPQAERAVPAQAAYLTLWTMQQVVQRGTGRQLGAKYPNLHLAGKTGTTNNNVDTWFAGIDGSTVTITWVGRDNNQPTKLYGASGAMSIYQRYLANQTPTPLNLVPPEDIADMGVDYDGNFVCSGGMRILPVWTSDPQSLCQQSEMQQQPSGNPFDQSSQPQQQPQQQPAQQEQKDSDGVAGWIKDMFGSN
Source text: To determine the ability of boronic acid-based test PBP inhibitors to bind Penicillin Binding Proteins (PBPs), a radio-labelled boronic acid PBP inhibitor
[drawing 751] was used in competition binding assays to determine boronic acid PBP inhibitor binding to PBP1a or PBP1b from Escherichia coli. PBP1a and PBP1b were purified as described previously (Bertsche, U.; et al., J. Biol. Chem. 2005, 280 (45), 38096-38101; Born, P.; et al., J. Biol. Chem. 2006. 281 (37), 26985-26993). To establish assay conditions for competition binding, an enzyme titration/saturation binding experiment was performed. Saturation binding was performed in a buffer comprised of 20 mM Tris (pH 7.5), 500 mM NaCl and 0.1% (v/v) TritonX-100, with PBP1a/PBP1b at a final concentration of 0.1 μM and Compound A at final concentrations ranging from 0-100 μM. Mixtures were incubated for 60 minutes, then applied to Zeba Spin Desalting columns or plates (ThermoFisher Scientific) and centrifuged at 1000-1500×g for 2 minutes. The flow through, containing PBP bound with Compound A, was recovered and 100 μL mixed with 5 mL of UltimaGold liquid scintillation cocktail (Perkin Elmer), and the radioactivity counted using a Beckman Coulter LS 6500 Multipurpose scintillation counter. PBP binding of Compound A approached saturation at 20 μM of ^14C-labeled probe. The competition binding assay was validated using the beta-lactam ampicillin, with Compound A at a final concentration of 20 μM, PBP1a/PBP1b at a final concentration of 0.1 μM. PBP1a/PBP1b was incubated with ampicillin in a 96-well microplate for 60 minutes, then Compound A was added and the mixtures incubated for an additional 60 minutes. The mixtures were then applied to Zeba Spin desalting plates and centrifuged at 1000×g for 2 minutes. The flow through was recovered and 100 μl mixed with 5 ml of UltimaGold liquid scintillation cocktail and the radioactivity counted. […] Binding assays with boronic acid PBP inhibitors were performed in an identical fashion. The potency of boronic acid PBP inhibitors was reported as the EC50 value.

[1] = test system: engineered strain of Escherichia coli harboring CTX-M15; test: microbe, parasite or virus in culture; assay type: cell-based; conditions: Escherichia coli, read-out: Microbiological Activity (MIC in mg/L), E. coli DH5α/pLBII-CTX-M15, engineered strain producing CTX-M15

CCN1CCN(C(=O)NC(C(=O)N[C@H]2Cc3cccc(C(=O)O)c3OB2O)c2cccnc2)C(=O)C1=O (stereo partly drawn) [Example 105, (3R)-3-(2-(4-ethyl-2,3-dioxopiperazine-1-carboxamido)-2-(pyridin-3-yl)acetamido)-2-hydroxy-3,4-dihydro-2H-benzo[e][1,2]oxaborinine-8-carboxylic acid]
MIC (E. coli ATCC 25922): 32 to 64 µg/mL | MIC (K. pneumoniae UMM): 32 to 64 µg/mL | MIC (E. coli AG100A): 2 to 4 µg/mL | MIC (K. pneumoniae SI-117): > 128 µg/mL | MIC (E. coli D22): 8 to 16 µg/mL | MIC (E. coli 901C): < 0.25 µg/mL | EC50 (E. coli PBP3): 30 to 500 µM | MIC (K. pneumoniae 848844): > 128 µg/mL | MIC (E. coli AG100): 32 to 64 µg/mL | EC50 (E. coli PBP1b): > 100 µM | MIC [1]: 32 to 64 mg/L (≈ 62.8 to 126 µM)

CCN1CCN(C(=O)NC(C(=O)N[C@H]2Cc3cccc(C(=O)O)c3OB2O)c2ccc[n+](CC(=O)[O-])c2)C(=O)C1=O (stereo partly drawn) [Example 108, 2-(3-(2-(((R)-8-carboxy-2-hydroxy-3,4-dihydro-2H-benzo[e][1,2]oxaborinin-3-yl)amino)-1-(4-ethyl-2,3-dioxopiperazine-1-carboxamido)-2-oxoethyl)pyridin-1-ium-1-yl)acetate]
MIC (E. coli ATCC 25922): 32 to 64 µg/mL | MIC (K. pneumoniae UMM): 32 to 64 µg/mL | MIC (E. coli AG100A): 32 to 64 µg/mL | MIC (K. pneumoniae SI-117): > 128 µg/mL | MIC (E. coli D22): 8 to 16 µg/mL | MIC (E. coli 901C): 8 to 16 µg/mL | EC50 (E. coli PBP3): 30 to 500 µM | MIC (K. pneumoniae 848844): > 128 µg/mL | MIC (E. coli AG100): > 128 µg/mL | EC50 (E. coli PBP1b): 10 to 100 µM | MIC [1]: 32 to 64 mg/L (≈ 56.4 to 113 µM)

CCN1CCN(C(=O)NC(C(=O)N[C@H]2Cc3cccc(C(=O)O)c3OB2O)c2ncccn2)C(=O)C1=O (stereo partly drawn) [Example 111, (3R)-3-(2-(4-ethyl-2,3-dioxopiperazine-1-carboxamido)-2-(pyrimidin-2-yl)acetamido)-2-hydroxy-3,4-dihydro-2H-benzo[e][1,2]oxaborinine-8-carboxylic acid]
MIC (E. coli ATCC 25922): 32 to 64 µg/mL | MIC (K. pneumoniae UMM): 32 to 64 µg/mL | MIC (E. coli AG100A): 2 to 4 µg/mL | MIC (K. pneumoniae SI-117): > 128 µg/mL | MIC (E. coli D22): 8 to 16 µg/mL | MIC (E. coli 901C): 0.5 to 1 µg/mL | EC50 (E. coli PBP3): 30 to 500 µM | MIC (K. pneumoniae 848844): > 128 µg/mL | MIC (E. coli AG100): 32 to 64 µg/mL | EC50 (E. coli PBP1b): > 100 µM | MIC [1]: 32 to 64 mg/L (≈ 62.7 to 125 µM)

CCN1CCN(C(=O)NC(C(=O)N[C@H]2Cc3cccc(C(=O)O)c3OB2O)c2ccc(S(C)(=O)=O)cc2)C(=O)C1=O (stereo partly drawn) [Example 118, (3R)-3-(2-(4-ethyl-2,3-dioxopiperazine-1-carboxamido)-2-(4-(methylsulfonyl)phenyl)acetamido)-2-hydroxy-3,4-dihydro-2H-benzo[e][1,2]oxaborinine-8-carboxylic acid]
EC50 (E. coli PBP3; fluorescence polarization competition binding with Bocillin-FL, read-out: E. coli K12 PBP3 Potency): < 30 µM | EC50 (E. coli PBP1b): > 100 µM | MIC [1]: 128 to 256 mg/L (≈ 218 to 437 µM)

CS(=O)(=O)c1ccc(C(NC(=O)N2CCN(CCF)C(=O)C2=O)C(=O)N[C@H]2Cc3cccc(C(=O)O)c3OB2O)cc1 (stereo partly drawn) [Example 119, (3R)-3-(2-(4-(2-fluoroethyl)-2,3-dioxopiperazine-1-carboxamido)-2-(4-(methylsulfonyl)phenyl)acetamido)-2-hydroxy-3,4-dihydro-2H-benzo[e][1,2]oxaborinine-8-carboxylic acid]
EC50 (E. coli PBP3): 30 to 500 µM | EC50 (E. coli PBP1b): > 100 µM | MIC [1]: 32 to 64 mg/L (≈ 52.9 to 106 µM)
